Columns and labels:
[1] = 101.33 kPa, Liquid, Pycnometric method
[2] = wn = mass fraction of the nth substance listed; settings: for surface tension liquid-gas: Ring tensiometer; for mass density: 101.3 kPa, Liquid, Pycnometric method

CNCCO [2-(methylamino)ethanol]
[1]
Settings	mass density [kg/m3]
298.15 K	936.18
303.15 K	932.26
313.15 K	924.42
323.15 K	916.48

CNCCO [2-(methylamino)ethanol] + O
[2]
Settings	mass density [kg/m3]	surface tension liquid-gas [mN/m]
298 K, w1 = 0.1	–	60.85
298 K, w1 = 0.2	–	56.11
298 K, w1 = 0.3	–	52.51
298 K, w1 = 0.4	–	49.16
298.15 K, w1 = 0.178	996.31	–
298.15 K, w1 = 1	936.18	–
303 K, w1 = 0.1	–	60.02
303 K, w1 = 0.2	–	55.28
303 K, w1 = 0.3	–	52.33
303 K, w1 = 0.4	–	48.15
303.15 K, w1 = 0.178	994.38	–
303.15 K, w1 = 1	932.26	–
308 K, w1 = 0.1	–	59.5
308 K, w1 = 0.2	–	54.5
308 K, w1 = 0.3	–	51.46
308 K, w1 = 0.4	–	47.2
308.15 K, w1 = 0.178	993.12	–
313 K, w1 = 0.1	–	58.65
313 K, w1 = 0.2	–	53.42
313 K, w1 = 0.3	–	50.18
313 K, w1 = 0.4	–	46.67
313.15 K, w1 = 0.178	990.09	–
313.15 K, w1 = 1	924.42	–
318 K, w1 = 0.1	–	57.66
318 K, w1 = 0.2	–	52.78
318 K, w1 = 0.3	–	49.42
318 K, w1 = 0.4	–	45.72
318.15 K, w1 = 0.178	988.61	–
323 K, w1 = 0.1	–	56.89
323 K, w1 = 0.2	–	51.79
323 K, w1 = 0.3	–	48.9
323 K, w1 = 0.4	–	44.92
323.15 K, w1 = 0.178	984.89	–
323.15 K, w1 = 1	916.48	–

From the NIST ThermoML archive (doi:10.1021/je1002626)
